Active and inactive are the calls of the source.
Assays:
[1] = target: Sphingosine 1-phosphate receptor 1 (Homo sapiens, UniProt P21453); experiment: Dose Response Cell-Based Assay for Agonists of the Sphingosine 1-Phosphate Receptor 1 (S1P1): Purchased Analogues. [Related pubchem assays: 1192, 373, 439 ]; format: functional
[2] = target: Sphingosine 1-phosphate receptor 2 (Homo sapiens, UniProt O95136); experiment: Dose Response Cell-Based Assay for Agonists of the Sphingosine 1-Phosphate Receptor 2 (S1P2): Purchased Analogues. [Related pubchem assays: 1192, 373, 439 ]; format: functional
[3] = target: Sphingosine 1-phosphate receptor 3 (Homo sapiens, UniProt Q99500); experiment: Dose Response Cell-Based Assay for Agonists of the Sphingosine 1-Phosphate Receptor 3 (S1P3): Purchased Analogues. [Related pubchem assays: 373, 439 ]; format: functional
[4] = target: T1, Kappa-type opioid receptor (Homo sapiens, UniProt P41145); format: functional
[5] = tested on: Streptococcus sp. 'group A'; experiment: Streptococcus pyogenes SK(-)GAS viability under kanamycin – luminescence, BacTiterGlo, confirmation, counter-screen for streptokinase expression inhibitor project, dose response (AID 1900); format: functional, organism-based
[6] = target: T1, Kappa-type opioid receptor; format: functional; remark: listed apart in the source
[7] = Luminescence Cell-Based Dose Confirmation HTS to Identify Inhibitors of Polyadenylation.; format: functional
Streptococcus = experiment: GAS UMAA2166 growth inhibition – luminescence, BacTiterGlo, counter-screen for streptokinase expression inhibitor project, dose response (AID 1915); format: functional, organism-based;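 further: potency for reduction of bacterial viability or growth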
[8] = target: T2, Type-1 angiotensin II receptor (Homo sapiens, UniProt P30556); experiment: antagonism of angiotensin II type 1 receptor – cell-based, uHTS hits, selectivity assay for APJ receptor antagonist project, dose response (AID 463214); format: functional;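 further: antagonist potency against angiotensin II stimulated AT1 response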
T2 sequence (P30556 whole entry): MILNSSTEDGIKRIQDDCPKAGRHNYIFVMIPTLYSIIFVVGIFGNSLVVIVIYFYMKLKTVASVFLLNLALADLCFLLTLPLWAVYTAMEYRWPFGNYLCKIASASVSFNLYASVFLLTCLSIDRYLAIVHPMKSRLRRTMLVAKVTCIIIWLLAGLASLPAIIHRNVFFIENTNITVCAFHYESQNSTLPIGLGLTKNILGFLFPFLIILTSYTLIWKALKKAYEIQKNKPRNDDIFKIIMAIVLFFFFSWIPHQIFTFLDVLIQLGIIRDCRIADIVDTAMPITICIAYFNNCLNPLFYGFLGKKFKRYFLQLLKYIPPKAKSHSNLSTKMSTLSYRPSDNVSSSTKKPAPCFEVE

Beta-galactosidase [9] = target: T3, Beta-galactosidase (Escherichia coli, UniProt Q8VNN2); experiment: PubChem AID 485352; format: functional
[10] = A Cell Based Secondary Assay To Explore Cytotoxicity of Compounds that Sensitize Mycobacterium Tuberculosis to Beta-Lactam Antibiotics.; format: functional
[11] = target: T4, Delta-type opioid receptor (Homo sapiens, UniProt P41143); experiment: HTS Image-Based Screen for Agonists of the DOR Receptor. [Related pubchem assays (depositor defined):AID1777, AID1786, AID2133]; format: functional
Beta-galactosidase [12] = target: T3, Beta-galactosidase; format: functional
Vero [13] = experiment: mammalian cell viability reduction – secondary assay, cytotoxicity control for West Nile virus antiviral project, dose response (AID 1650); format: functional; settings: Chlorocebus sabaeus
Mu-type opioid receptor = Mu-type opioid receptor (Homo sapiens, UniProt P35372); experiment: HTS Image-Based Screen for Agonists of the MOR Receptor. [Related pubchem assays (depositor defined):AID1777, AID1785, AID1786, AID2133]; format: functional;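 further: imaging of beta-arrestin GFP recruitment into spots after receptor activation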
Streptokinase A = target: T5, Streptokinase A (Streptococcus pyogenes serotype M1, UniProt P10520); experiment: viability-normalized secreted streptokinase activity reduction – plasminogen activation absorbance, OD405, dose response (AID 1914); format: functional, Streptococcus pyogenes M1 GAS;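 further: secreted streptokinase activity via plasminogen activation per viability signal from cell pellet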
T5 sequence (P10520 whole entry): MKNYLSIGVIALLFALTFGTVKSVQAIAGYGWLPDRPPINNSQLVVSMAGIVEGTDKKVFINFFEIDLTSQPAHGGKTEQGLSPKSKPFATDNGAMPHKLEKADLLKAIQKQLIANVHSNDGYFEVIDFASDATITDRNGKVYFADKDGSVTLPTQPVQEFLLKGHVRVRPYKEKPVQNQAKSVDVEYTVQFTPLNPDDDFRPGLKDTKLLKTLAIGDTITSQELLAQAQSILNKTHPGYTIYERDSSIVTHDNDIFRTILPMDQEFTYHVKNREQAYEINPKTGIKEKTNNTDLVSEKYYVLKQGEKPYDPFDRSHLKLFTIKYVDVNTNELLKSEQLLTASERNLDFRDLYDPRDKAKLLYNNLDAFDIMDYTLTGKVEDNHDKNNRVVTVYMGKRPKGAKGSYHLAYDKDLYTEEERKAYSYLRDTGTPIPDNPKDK

Vero [14] = experiment: cells; format: functional, cell-based; settings: Chlorocebus sabaeus
Vero [15] = experiment: cells; format: functional; settings: Chlorocebus sabaeus
[16] = target: T4, Delta-type opioid receptor; experiment: HTS Image-Based Screen for Antagonists of the DOR Receptor. [Related pubchem assays (depositor defined):AID1777, AID1785, AID1786, AID2133]; format: functional
[17] = target: T6, DNA repair and recombination protein RAD54-like (Homo sapiens, UniProt Q92698); experiment: RAD54 Holliday junction migration blockers – biochemical, fluorescence, cherry-picked samples, dose series, confirmation (AID 651657); format: functional
T6 sequence (Q92698 whole entry): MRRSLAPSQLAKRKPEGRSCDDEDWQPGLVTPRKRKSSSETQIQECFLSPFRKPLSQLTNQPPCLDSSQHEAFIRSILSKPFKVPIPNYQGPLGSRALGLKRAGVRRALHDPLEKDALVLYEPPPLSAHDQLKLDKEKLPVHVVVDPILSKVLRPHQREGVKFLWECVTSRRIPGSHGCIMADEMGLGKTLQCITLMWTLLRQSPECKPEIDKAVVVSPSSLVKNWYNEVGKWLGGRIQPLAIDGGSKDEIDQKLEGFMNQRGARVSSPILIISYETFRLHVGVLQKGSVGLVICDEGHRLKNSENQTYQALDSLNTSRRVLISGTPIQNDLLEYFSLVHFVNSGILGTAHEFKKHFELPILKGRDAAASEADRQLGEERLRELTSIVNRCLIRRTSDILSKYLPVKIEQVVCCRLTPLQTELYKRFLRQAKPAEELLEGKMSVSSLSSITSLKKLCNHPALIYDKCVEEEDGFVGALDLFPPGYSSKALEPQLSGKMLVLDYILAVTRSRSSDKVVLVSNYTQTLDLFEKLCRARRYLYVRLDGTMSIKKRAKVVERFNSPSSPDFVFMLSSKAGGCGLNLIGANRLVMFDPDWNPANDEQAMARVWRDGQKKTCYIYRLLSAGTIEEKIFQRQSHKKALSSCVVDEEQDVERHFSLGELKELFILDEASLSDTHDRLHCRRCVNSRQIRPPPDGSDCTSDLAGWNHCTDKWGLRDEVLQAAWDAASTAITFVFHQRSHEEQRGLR

[18] = target: Luciferin 4-monooxygenase (Photinus pyralis, UniProt P08659); experiment: Counter Screen for Luciferase-based Assay Positives. [Related pubchem assays: 620, 618, 411 ]
[19] = target: Epstein-Barr nuclear antigen 1 (Epstein-Barr virus (strain B95-8) (HHV-4) (Human herpesvirus 4), UniProt P03211); experiment: inhibition of EBV nuclear antigen 1 DNA binding – biochemical, fluorescence polarization, 1536-well, dose response (AID 2381); design: species or system human gammaherpesvirus 4;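 further: fluorescence polarization of a Cy5 DNA probe bound by EBNA-1 protein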
[20] = target: T7, Oxysterols receptor LXR-beta (Homo sapiens, UniProt P55055); format: functional, cell-based;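 further: agonist activity at LXR measured by a cell-based luminescence readout across a dose range, run as a counterscreen for daf-12 agonists; HEK293 cells with Gal4-LXR fusion and GAL4-driven luciferase reporter; potency for activation of Gal4-LXR reporter so compounds are agonists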
T7 sequence (P55055 whole entry): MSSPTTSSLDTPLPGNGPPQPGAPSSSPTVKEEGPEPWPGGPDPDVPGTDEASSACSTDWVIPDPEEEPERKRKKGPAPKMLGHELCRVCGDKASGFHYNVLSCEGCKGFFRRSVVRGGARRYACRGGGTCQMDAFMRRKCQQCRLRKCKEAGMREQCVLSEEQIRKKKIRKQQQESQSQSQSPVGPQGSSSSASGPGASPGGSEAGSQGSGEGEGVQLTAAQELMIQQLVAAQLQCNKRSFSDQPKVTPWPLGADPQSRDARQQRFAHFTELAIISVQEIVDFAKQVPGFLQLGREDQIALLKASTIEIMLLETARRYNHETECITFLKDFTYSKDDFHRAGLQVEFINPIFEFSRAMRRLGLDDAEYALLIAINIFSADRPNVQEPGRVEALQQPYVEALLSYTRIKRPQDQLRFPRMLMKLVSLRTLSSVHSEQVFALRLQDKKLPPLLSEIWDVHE

[21] = target: Lytic switch protein BZLF1 (Epstein-Barr virus (strain B95-8) (HHV-4) (Human herpesvirus 4), UniProt P03206); experiment: inhibition of BZLF1 ZTA DNA binding – biochemical, fluorescence polarization, Epstein-Barr virus, 1536-well, counter-screen for EBNA-1 inhibitor project, dose response (AID 2377); design: species or system human gammaherpesvirus 4;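 further: fluorescence polarization of Cy5-labelled ZRE DNA probe bound by purified Zta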
[22] = viability of uninfected HEp-2 cells – cell-based, HTS, cytotoxicity control for RSV inhibitor project, dose response (AID 2410); format: functional; settings: human respiratory syncytial virus
[23] = Trypanosoma cruzi growth suppression in host cells – NIH3T3 host cells, beta-gal luminescence, confirmation (AID 2044); format: functional, cell-based;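 further: intracellular parasites grown in NIH/3T3 mouse fibroblasts as host cells; luminescent beta-galactosidase reporter signal from transgenic T. cruzi replicating inside host cells; inhibitors lower the luminescence signal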
[24] = NIH3T3 cell viability loss – ATP luminescence, mouse fibroblasts, counter-screen, dose response (AID 2010); format: functional, cell-based;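 further: cells exposed to compound for about 90 hours before reading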
[25] = Luminescence-based dose response cell-based high throughput screening assay for cytotoxic compounds using the IEC-6 intestinal epithelial cell line. [Related pubchem assays: 1858 (Summary AID.), 1825 (Counterscreen.), 1907 (Confirmation screen.)]; format: functional
[26] = target: T8, Rac GTPase-activating protein 1 (Homo sapiens, UniProt Q9H0H5); experiment: blockers of MgcRacGAP-driven Rac1 GTP hydrolysis – biochemical, ADP Hunter fluorescence, primary and confirmatory, confirmation (AID 624330); format: functional
T8 sequence (Q9H0H5 whole entry): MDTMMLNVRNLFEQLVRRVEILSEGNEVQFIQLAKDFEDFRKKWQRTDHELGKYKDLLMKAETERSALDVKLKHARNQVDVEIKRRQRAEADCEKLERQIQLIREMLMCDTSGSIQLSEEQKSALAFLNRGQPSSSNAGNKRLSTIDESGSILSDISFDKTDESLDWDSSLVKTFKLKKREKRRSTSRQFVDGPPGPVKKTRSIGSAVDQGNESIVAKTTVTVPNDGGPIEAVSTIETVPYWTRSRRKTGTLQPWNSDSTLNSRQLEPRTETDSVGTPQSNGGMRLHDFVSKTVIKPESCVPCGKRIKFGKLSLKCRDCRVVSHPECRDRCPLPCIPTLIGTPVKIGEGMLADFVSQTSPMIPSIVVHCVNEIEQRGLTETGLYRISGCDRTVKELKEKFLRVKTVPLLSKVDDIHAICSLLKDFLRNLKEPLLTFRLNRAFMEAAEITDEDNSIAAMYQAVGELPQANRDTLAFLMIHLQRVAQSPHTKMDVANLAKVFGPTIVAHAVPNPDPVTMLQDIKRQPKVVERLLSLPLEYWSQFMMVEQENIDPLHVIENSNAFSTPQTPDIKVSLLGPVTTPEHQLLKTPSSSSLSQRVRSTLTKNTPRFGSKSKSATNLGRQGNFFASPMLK

Estrogen receptor = target: T9, Estrogen receptor (Homo sapiens, UniProt P03372); experiment: blockers of SRC-3 recruitment to ERα – biochemical, ELISA, streptavidin-HRP readout, orthogonal assay, confirmation (AID 1079)
T9 sequence (P03372 whole entry): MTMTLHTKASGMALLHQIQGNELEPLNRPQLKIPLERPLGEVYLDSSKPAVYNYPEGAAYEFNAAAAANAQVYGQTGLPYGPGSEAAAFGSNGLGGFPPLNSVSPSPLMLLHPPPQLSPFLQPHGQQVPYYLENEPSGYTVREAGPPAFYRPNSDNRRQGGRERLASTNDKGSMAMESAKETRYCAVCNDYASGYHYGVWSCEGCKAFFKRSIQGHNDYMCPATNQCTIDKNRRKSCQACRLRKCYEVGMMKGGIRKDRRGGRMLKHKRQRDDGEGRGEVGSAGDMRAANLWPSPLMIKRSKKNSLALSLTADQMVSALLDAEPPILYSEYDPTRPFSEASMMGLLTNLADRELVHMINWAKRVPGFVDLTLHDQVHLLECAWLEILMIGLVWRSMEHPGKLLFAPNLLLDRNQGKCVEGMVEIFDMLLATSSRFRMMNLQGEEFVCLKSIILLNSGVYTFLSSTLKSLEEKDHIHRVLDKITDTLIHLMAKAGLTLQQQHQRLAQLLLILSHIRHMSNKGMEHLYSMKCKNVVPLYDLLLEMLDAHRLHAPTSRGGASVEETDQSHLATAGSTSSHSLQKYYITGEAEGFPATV

T4 sequence (P41143 whole entry): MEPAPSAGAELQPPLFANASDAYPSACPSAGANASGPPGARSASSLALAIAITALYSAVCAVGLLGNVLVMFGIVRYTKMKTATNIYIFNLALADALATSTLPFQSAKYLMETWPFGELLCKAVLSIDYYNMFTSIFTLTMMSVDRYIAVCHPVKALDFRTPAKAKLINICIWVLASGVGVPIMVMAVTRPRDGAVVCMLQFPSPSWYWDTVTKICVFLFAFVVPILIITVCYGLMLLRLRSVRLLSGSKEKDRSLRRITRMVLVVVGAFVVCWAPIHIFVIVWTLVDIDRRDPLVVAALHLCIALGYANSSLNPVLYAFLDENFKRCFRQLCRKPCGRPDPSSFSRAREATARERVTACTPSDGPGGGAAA
T3 sequence (Q8VNN2 whole entry): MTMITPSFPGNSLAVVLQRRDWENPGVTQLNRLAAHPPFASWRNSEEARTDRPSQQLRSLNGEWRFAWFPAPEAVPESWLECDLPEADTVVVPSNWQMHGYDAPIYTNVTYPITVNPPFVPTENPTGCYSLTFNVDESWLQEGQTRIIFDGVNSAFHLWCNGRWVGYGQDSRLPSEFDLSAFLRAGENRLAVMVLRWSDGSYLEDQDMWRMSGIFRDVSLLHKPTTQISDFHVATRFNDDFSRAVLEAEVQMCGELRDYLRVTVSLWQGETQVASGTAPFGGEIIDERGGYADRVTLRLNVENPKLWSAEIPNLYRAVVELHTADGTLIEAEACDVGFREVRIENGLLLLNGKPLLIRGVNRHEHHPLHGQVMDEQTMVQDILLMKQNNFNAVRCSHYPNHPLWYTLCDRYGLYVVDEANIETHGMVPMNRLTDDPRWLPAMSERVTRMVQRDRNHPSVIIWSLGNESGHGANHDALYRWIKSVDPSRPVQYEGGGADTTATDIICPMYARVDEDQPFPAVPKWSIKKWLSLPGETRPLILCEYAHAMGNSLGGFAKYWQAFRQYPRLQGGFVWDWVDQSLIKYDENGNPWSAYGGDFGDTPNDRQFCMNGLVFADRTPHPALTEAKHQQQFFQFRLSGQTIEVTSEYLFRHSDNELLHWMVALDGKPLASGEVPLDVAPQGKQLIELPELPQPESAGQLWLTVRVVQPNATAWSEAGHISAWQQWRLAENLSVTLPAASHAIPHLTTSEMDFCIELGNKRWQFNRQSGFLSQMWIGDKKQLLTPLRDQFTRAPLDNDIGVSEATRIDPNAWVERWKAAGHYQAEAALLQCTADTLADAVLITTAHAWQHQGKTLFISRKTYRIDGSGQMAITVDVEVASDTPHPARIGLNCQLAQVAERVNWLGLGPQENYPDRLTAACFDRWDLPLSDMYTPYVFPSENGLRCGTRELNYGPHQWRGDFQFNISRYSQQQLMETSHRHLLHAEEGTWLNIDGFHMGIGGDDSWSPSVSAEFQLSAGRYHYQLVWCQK
T1 sequence (P41145 whole entry): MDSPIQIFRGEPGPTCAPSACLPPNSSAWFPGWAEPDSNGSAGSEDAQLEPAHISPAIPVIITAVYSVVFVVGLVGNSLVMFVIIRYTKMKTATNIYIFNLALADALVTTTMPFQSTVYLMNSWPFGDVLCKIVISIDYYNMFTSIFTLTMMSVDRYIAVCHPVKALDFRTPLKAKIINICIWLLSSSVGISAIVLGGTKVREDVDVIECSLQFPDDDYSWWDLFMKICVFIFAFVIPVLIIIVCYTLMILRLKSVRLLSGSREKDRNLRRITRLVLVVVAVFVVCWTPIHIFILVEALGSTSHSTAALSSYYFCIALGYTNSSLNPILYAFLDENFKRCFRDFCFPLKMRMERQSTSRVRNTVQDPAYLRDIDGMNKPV
Lytic switch protein BZLF1, sequence (P03206 whole entry): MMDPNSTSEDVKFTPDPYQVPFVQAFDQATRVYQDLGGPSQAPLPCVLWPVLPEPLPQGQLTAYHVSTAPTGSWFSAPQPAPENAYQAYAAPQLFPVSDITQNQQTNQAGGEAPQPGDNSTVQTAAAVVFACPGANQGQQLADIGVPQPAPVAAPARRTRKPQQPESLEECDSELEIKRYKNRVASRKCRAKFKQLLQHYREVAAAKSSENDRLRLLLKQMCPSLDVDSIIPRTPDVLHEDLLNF
Epstein-Barr nuclear antigen 1, sequence (P03211 whole entry, the tested form may be a part): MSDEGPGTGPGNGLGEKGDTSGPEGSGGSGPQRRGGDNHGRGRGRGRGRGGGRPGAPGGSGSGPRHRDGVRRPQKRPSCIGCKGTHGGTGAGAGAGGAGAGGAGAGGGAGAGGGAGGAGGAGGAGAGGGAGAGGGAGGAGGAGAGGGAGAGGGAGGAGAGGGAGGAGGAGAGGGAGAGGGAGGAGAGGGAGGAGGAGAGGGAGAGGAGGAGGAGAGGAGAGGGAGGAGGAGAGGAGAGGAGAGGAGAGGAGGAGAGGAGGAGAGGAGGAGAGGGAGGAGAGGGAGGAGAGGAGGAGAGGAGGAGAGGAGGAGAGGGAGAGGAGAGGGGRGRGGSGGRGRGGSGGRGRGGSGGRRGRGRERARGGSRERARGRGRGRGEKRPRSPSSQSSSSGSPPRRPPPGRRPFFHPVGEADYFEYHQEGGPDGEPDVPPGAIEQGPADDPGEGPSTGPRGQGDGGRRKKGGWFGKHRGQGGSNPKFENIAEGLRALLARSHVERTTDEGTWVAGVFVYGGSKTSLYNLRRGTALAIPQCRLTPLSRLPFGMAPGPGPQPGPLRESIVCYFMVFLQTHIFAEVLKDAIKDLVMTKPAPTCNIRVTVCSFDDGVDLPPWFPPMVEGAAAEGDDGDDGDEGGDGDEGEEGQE
Sphingosine 1-phosphate receptor 2, sequence (O95136 whole entry): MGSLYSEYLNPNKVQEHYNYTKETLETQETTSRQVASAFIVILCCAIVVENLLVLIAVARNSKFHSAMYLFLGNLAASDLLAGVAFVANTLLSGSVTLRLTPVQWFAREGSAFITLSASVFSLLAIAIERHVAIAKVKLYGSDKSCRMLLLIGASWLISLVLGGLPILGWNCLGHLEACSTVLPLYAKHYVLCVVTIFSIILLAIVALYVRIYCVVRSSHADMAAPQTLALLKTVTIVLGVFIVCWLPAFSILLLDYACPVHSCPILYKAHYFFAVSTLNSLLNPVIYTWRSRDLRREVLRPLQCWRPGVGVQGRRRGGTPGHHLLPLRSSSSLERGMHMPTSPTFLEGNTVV
Sphingosine 1-phosphate receptor 1, sequence (P21453 whole entry): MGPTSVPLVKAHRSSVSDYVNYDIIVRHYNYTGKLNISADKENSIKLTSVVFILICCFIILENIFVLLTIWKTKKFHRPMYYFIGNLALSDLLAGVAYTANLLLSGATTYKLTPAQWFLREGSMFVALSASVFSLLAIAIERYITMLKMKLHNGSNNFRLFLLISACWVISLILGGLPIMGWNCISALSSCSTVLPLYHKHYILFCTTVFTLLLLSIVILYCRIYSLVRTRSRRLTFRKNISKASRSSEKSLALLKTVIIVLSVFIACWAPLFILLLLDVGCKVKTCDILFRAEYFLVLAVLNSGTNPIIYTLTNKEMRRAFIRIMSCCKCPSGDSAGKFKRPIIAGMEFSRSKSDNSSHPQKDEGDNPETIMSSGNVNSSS
Sphingosine 1-phosphate receptor 3, sequence (Q99500 whole entry): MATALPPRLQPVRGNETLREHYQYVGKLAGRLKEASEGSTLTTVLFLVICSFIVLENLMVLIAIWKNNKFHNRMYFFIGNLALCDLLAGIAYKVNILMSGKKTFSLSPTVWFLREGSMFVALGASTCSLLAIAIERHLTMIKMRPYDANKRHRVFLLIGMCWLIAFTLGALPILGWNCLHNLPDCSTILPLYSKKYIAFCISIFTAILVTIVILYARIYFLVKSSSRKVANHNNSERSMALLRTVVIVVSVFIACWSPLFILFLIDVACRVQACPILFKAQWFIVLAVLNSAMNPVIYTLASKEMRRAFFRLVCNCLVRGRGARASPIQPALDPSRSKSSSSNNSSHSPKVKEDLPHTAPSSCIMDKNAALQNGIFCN
Luciferin 4-monooxygenase, sequence (P08659 whole entry): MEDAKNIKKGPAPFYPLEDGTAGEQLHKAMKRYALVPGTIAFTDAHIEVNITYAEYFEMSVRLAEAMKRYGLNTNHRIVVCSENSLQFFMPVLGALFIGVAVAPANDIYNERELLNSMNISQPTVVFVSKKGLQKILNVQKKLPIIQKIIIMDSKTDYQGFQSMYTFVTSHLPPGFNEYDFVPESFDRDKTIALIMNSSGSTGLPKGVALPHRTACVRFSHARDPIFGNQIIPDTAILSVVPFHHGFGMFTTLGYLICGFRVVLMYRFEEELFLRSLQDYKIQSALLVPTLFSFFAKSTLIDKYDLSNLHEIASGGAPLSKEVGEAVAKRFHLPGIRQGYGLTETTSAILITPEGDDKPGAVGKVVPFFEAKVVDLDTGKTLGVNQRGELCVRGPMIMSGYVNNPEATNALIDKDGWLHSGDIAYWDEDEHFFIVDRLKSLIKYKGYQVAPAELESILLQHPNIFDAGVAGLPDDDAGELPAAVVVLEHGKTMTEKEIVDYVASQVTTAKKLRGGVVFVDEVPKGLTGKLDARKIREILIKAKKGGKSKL
Mu-type opioid receptor, sequence (P35372 whole entry): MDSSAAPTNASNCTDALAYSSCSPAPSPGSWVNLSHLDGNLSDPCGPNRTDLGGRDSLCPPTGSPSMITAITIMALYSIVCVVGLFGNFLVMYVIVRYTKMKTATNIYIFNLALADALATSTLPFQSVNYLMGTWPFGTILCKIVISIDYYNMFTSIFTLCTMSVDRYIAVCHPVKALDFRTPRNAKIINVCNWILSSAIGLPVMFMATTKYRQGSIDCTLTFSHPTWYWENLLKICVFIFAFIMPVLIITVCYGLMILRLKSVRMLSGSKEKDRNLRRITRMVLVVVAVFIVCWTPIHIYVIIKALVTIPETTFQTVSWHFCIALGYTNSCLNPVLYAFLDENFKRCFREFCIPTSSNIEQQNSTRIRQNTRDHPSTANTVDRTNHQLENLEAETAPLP

## Cc1ccc(-c2cc(C(=O)NC3CCCCC3)no2)cc1
[1]
  EC50: 0.194 µM (active)
[2]
  EC50: > 10 µM (not active)
[3]
  EC50: > 50 µM (not active)

## Cc1ccc(S(=O)(=O)Nc2cccc3cccnc23)c([N+](=O)[O-])c1
[4]
  IC50: 5.55 µM (active)
[5]
  EC50: 0.707 µM (active)
[6]
  IC50: > 32 µM
[7]
  EC50: > 120 µM (not active)
Streptococcus
  EC50: 17.4 µM (active)
[8]
  IC50: 8.21 µM (active)
Beta-galactosidase [9]
  EC50: > 40 µM (inactive)
[10]
  CC50: 5.64 µM (active)
[11]
  EC50: > 32 µM (inactive)
Beta-galactosidase [12]
  EC50: > 31.5 µM (inactive)
Vero [13]
  CC50: 5.79 µM (active)
Mu-type opioid receptor
  EC50: > 32 µM (inactive)
Streptokinase A
  EC50: > 150 µM (not active)
Vero [14]
  IC50: 18.4 µM (active)
Vero [15]
  CC50: 7.85 µM (active)
[16]
  IC50: > 32 µM (inactive)

## COc1ccc2nc(-c3ccc(N)cc3)[nH]c2c1
[17]
  AC50: 35.1 µM (active)
[18]
  EC50: 0.38 µM (active)

## COc1ccc2oc(C(=O)Nc3nccs3)c(C)c2c1
[19]
  IC50: 21 µM (not active)
[20]
  EC50: > 67.5 µM (inactive)
[21]
  IC50: > 111 µM (not active)

## O=C(N/N=C/c1ccc(O)cc1)Nc1cccc2nsnc12
[22]
  CC50: > 50 µM (active)
[23]
  EC50: 0.356 µM (active)
[24]
  EC50: 10.8 µM (active)
[25]
  IC50: 2.51 µM (active)
[26]
  IC50: 63.5 µM (active)

## COC(=O)c1ccc2c(=O)n(CCCC(=O)N3CCN(c4cccc(Cl)c4)CC3)c(=S)[nH]c2c1
Estrogen receptor
  IC50: 18.7 µM (not active)

— ChEMBL document CHEMBL1201862, “PubChem BioAssay data set” (2004)
